Measured values reported in patent publication US11369565B2, “Amino-pyrimidine skeletal muscle modulators” (Cytokinetics, Inc., priority 2010, dated 2022).

test system: rabbit skeletal myofibrils (approximately 90% fast fibers); test: Activation of fast skeletal myofibrils (PUMA coupled-enzyme ATPase assay at pCa25); format: biochemical; details: concentration at which the compound increased the enzymatic activity by 40%; calcium at pCa25; PM12 buffer pH 6.8
Protocol: Preparation of fast skeletal myofibrils. Rabbit skeletal myofibrils were prepared based upon the method of Herrmann et al. (Biochem. 32(28):7255-7263(1993). Myofibrils were prepared from rabbit psoas muscle purchased from Pel-Freez Biologicals (Arkansas) within 2 days of ordering, stored on ice. Minced muscle was homogenized in 10 volumes of ice-cold “standard” buffer (50 mM Tris, pH 7.4, 0.1 M potassium acetate, 5 mM KCl, 2 mM DTT, 0.2 mM PMSF, 10 μM leupeptin, 5 μM pepstatin, and 0.5 mM sodium azide) containing 5 mM EDTA and 0.5% Triton X-100 using an Omni-Macro homogenizer. Myofibrils were recovered by low speed centrifugation (3000 rpm for 10 minutes) and washed 2 times in the Triton X-100 containing buffer to ensure removal of cellular membrane. Following the Triton washes, myofibrils were washed 3 times in “standard” buffer containing 2 mM magnesium acetate. A final wash in assay buffer (12 mM PIPES, pH 6.8, 60 mM KCl, 1 mM DTT) was performed and brought to 10% sucrose for flash freezing in liquid nitrogen and storage at −80° C.
Activation of Fast Skeletal Myofibrils. Fast fiber activators were identified by measuring the enzymatic activity of muscle myofibril preparations using the proprietary PUMA™ (see, e.g., U.S. Pat. Nos. 6,410,254, 6,743,599, 7,202,051, and 7,378,254) assay system. Myofibril preparations consisted of rabbit skeletal muscle (approximately 90% fast fibers) that had been mechanically homogenized and washed with a detergent (triton X-100) to remove cellular membranes. This preparation retained all of the sarcomeric components in a native conformation and the enzymatic activity was still regulated by calcium. Compounds were tested using a myofibril suspension and a level of calcium sufficient to increase enzymatic activity of the myofibrils to 25% of their maximal rate (termed pCa25). Enzymatic activity was tracked via a pyruvate kinase and lactate dehydrogenase-coupled enzyme system. This assay regenerates myosin-produced ADP into ATP by oxidizing NADH, producing an absorbance change at 340 nm. The buffering system was 12 mM Pipes, 2 mM MgCl2, 1 mM DTT at pH 6.8 (PM12 buffer).

Row | SMILES | Mean AC1.4
1 | NC(=O)Cc1ccccc1-c1cnc(NC[C@]2(c3ncccc3F)C[C@H](F)C2)nc1 [2-{2-[2-({[3-fluoro-1-(3-fluoro(2-pyridyl))cyclobutyl)]methyl}amino)pyrimidin-5-yl]phenyl)acetamide] | C (C=10-20 uM)
2 | NC(=O)Cc1cnc(-c2cnc(NC[C@]3(c4ncccc4F)C[C@H](F)C3)nc2)s1 [2-{2-[2-({[3-fluoro-1-(3-fluoro(2-pyridyl))cyclobutyl]methyl)amino)pyrimidin-5-yl]-1,3-thiazol-5-yl}acetamide] | B (B=1-10 uM)
3 | NC(=O)Cc1cnc(-c2cnc(NCC3(c4ncccc4Cl)CCC3)nc2)s1 [2-{2-[2-({[(3-chloro-2-pyridyl)cyclobutyl]methyl}amino)pyrimidin-5-yl]-1,3-thiazol-5-yl}acetamide] | A (A=<1 uM)
4 | NC(=O)Cc1cnc(-c2cnc(NCC3(c4ncccc4F)CCC3)nc2)s1 [2-{2-[2-({[(3-fluoro-2-pyridyl)cyclobutyl]methyl}amino)pyrimidin-5-yl]-1,3-thiazol-5-yl}acetamide] | B (B=1-10 uM)
5 | N#CCc1cnc(-c2cnc(NCC3(c4ncccc4F)CCC3)nc2)s1 [2-{2-[2-({[(3-fluoro-2-pyridyl)cyclobutyl]methyl}amino)pyrimidin-5-yl]-1,3-thiazol-5-yl}ethanenitrile] | B (B=1-10 uM)
6 | Cc1nc(NC[C@]2(c3ncccc3F)C[C@H](F)C2)ncc1-c1cccc(CC(N)=O)c1 [2-{3-[2-({[3-fluoro-1-(3-fluoro(2-pyridyl))cyclobutyl]methyl}amino)-4-methylpyrimidin-5-yl]phenyl}acetamide] | C (C=10-20 uM)
7 | Cc1nc(NC[C@]2(c3ncccc3F)C[C@H](F)C2)ncc1-c1ccc(CC(N)=O)cc1 [2-{4-[2-({[3-fluoro-1-(3-fluoro(2-pyridyl))cyclobutyl]methyl}amino)-4-methylpyrimidin-5-yl]phenyl}acetamide] | B (B=1-10 uM)
8 | Cc1nc(NC[C@]2(c3ncccc3F)C[C@H](F)C2)ncc1-c1ccc(CC(=O)O)cc1 [2-{4-[2-({[3-fluoro-1-(3-fluoro(2-pyridyl))cyclobutyl]methyl}amino)-4-methylpyrimidin-5-yl]phenyl}acetic acid] | D (D=>20 uM)
9 | CC(C)(Nc1ncc(C#N)cn1)c1ncccc1Cl [2-{[1-(3-chloro(2-pyridyl))-isopropyl]amino}pyrimidine-5-carbonitrile] | D (D=>20 uM)
10 | CC(C)(Nc1ncc(C(N)=O)cn1)c1ncccc1Cl [2-{[1-(3-chloro(2-pyridyl))-isopropyl]amino}pyrimidine-5-carboxamide] | D (D=>20 uM)
11 | CC(C)(CNc1ncc2c(n1)CN(C(N)=O)CC2)c1ccc(F)cc1 [2-{[2-(4-fluorophenyl)-2-methylpropyl]amino}-5,6,7,8-tetrahydropyridino[3,4-d]pyrimidine-7-carboxamide] | D (D=>20 uM)
12 | CC(C)(CNc1ncc2c(n1)CCN(S(C)(=O)=O)C2)c1ccc(F)cc1 [2-{[2-(4-fluorophenyl)-2-methylpropyl]amino}-6-(methylsulfonyl)-5,6,7,8-tetrahydropyridino[4,3-d]pyrimidine] | B (B=1-10 uM)
13 | CC(C)(CNc1ncc2c(n1)CN(S(C)(=O)=O)CC2)c1ccc(F)cc1 [2-{[2-(4-fluorophenyl)-2-methylpropyl]amino}-7-(methylsulfonyl)-5,6,7,8-tetrahydropyridino[3,4-d]pyrimidine] | C (C=10-20 uM)
14 | O=C(O)CNC(=O)c1cnc(NCC2(c3ncccc3F)CCC2)nc1 [2-{[2-({[(3-fluoro-2-pyridyl)cyclobutyl]methyl}amino)pyrimidin-5-yl]carbonylamino} acetic acid] | D (D=>20 uM)
15 | NC(=O)c1cnc(NC2(c3ncccc3F)CCC2)nc1C(F)(F)F [2-{[(3-fluoro(2-pyridyl))cyclobutyl]amino)-4-(trifluoromethyl)pyrimidine-5-carboxamide] | D (D=>20 uM)
